Source: patent publication US10519111B2, “UV absorbing compounds, compositions comprising same and uses thereof” (CORAL SUNSCREEN PTY LTD, priority 2013, dated 2019)
Where “and” joins values, the source holds several entries; their conditions need not be identical. Identical values can stand only once.

Assay: UV absorption properties (λmax, molar extinction coefficient ε, efficiency E 1%, 1 cm)
Assay type: physicochemical
Settings: for ε (molar extinction coefficient): values in order of the λmax values

Row | SMILES | UV λmax | ε (molar extinction coefficient) | ε value (unit inferred) [M⁻¹ cm⁻¹]
1 | CC(C)CN1C=C(C(=O)c2cc(C(=O)C3=CN(CC(C)C)CCC3(C)C)cc(C(=O)C3=CN(CC(C)C)CCC3(C)C)c2)C(C)(C)CC1 [Compound 22, benzene-1,3,5-triyltris ((1-isobutyl-4,4-dimethyl-1,4,5,6-tetrahydropyridin-3-yl)methanone)] | 316 nm | 33000 M⁻¹ cm⁻¹ | 
2 | CC(C)CN1C=C(C(=O)c2ccc(C(=O)c3ccccc3)cc2)C(C)(C)CC1 [Compound 23, (4-benzoylphenyl)(1-isobutyl-4,4-dimethyl-1,4,5,6-tetrahydropyridin-3-yl)methanone] | 295 nm | 7500 M⁻¹ cm⁻¹ | 
3 | COc1ccc(C(=O)C2=CN(CC(C)C)CCC2(C)C)c(OC)c1 [Compound 24, 2,4-dimethoxyphenyl(1-isobutyl-4,4-dimethyl-1,4,5,6-tetrahydropyridin-3-yl)methanone] | 313 nm | 9500 M⁻¹ cm⁻¹ | 
4 | CC(C)=CC(=O)C1=CN(CC(C)C)CCC1(C)C [Compound 26, 1-(1-isobutyl-4,4-dimethyl-1,4,5,6-tetrahydropyridin-3-yl)-3-methylbut-2-en-1-one] | 310 nm and 314 nm | 19000 M⁻¹ cm⁻¹ | 
5 | C=C(C)CC(=O)C1=CN(CC(C)C)CCC1(C)C [Compound 27, 1-(1-isobutyl-4,4-dimethyl-1,4,5,6-tetrahydropyridin-3-yl)-3-methylbut-3-en-1-one] | 306 nm | 14500 M⁻¹ cm⁻¹ | 
6 | C=C/C=C/CC(=O)C1=CN(CC(C)C)CCC1(C)C [Compound 28, (E)-1-(1-isobutyl-4,4-dimethyl-1,4,5,6-tetrahydropyridin-3-yl)hexa-3,5-dien-1-one] | 311 nm |  | 
7 | C=CCC(=O)C1=CN(CC(C)C)CCC1(C)C [Compound 29, 1-(1-isobutyl-4,4-dimethyl-1,4,5,6-tetrahydropyridin-3-yl)but-3-en-1-one] | 310 nm |  | 
8 | CC(C)CN1C=C(C(=O)/C=C/c2ccccc2)C(C)(C)CC1 [Compound 31, (E)-1-(1-Isobutyl-4,4-dimethyl-1,4,5,6-tetrahydropyridin-3-yl)-3-phenylprop-2-en-1-one] | 360 nm | 16000 M⁻¹ cm⁻¹ | 
9 | C=CC(=O)C1=CN(CC(C)C)CCC1(C)C [Compound 32, 1-(1-Isobutyl-4,4-dimethyl-1,4,5,6-tetrahydropyridin-3-yl)prop-2-en-1-one] | 331 nm | 20500 M⁻¹ cm⁻¹ | 
10 | CC(C)CN1C=C(C(=O)/C=C/c2ccc(C(F)(F)F)cc2)C(C)(C)CC1 [Compound 33, (E)-1-(1-Isobutyl-4,4-dimethyl-1,4,5,6-tetrahydropyridin-3-yl)-3-(4-(trifluoromethyl)phenyl)prop-2-en-1-one] | 369 nm | 17000 M⁻¹ cm⁻¹ | 
11 | COc1ccc(/C=C/C(=O)C2=CN(CC(C)C)CCC2(C)C)cc1 [Compound 34, (E)-1-(1-isobutyl-4,4-dimethyl-1,4,5,6-tetrahydropyridin-3-yl)-3-(4-methoxyphenyl)prop-2-en-1-one] | 364 nm | 16150 M⁻¹ cm⁻¹ | 
12 | CC(C)CN1C=C(C(=O)/C=C/C=Cc2ccccc2)C(C)(C)CC1 [Compound 35, (2E, 4E/Z)-1-(1-isobutyl-4,4-dimethyl-1,4,5,6-tetrahydropyridin-3-yl)-5-phenylpenta-2,4-dien-1-one] | 318 nm and 370 nm | 14800 M⁻¹ cm⁻¹ and 13200 M⁻¹ cm⁻¹ | 
13 | C=C(C)C(=O)C1=CN(CC(C)C)CCC1(C)C [Compound 36, 1-(1-Isobutyl-4,4-dimethyl-1,4,5,6-tetrahydropyridin-3-yl)methylprop-2-en-1-one] | 310 nm | 18950 M⁻¹ cm⁻¹ | 
14 | C=C/C=C/C(=O)C1=CN(CC(C)C)CCC1(C)C [Compound 38, (2E/Z) 1-(1-isobutyl-4,4-dimethyl-1,4,5,6-tetrahydropyridin-3-yl)penta-2,4-dien-1-one] | 352 nm | 18000 M⁻¹ cm⁻¹ | 
15 | CC(C)CN1C=C(C(=O)C(C#N)=C(c2ccccc2)c2ccccc2)C(C)(C)CC1 [Compound 39] | 297 nm and 317 nm | 15750 M⁻¹ cm⁻¹ and 16150 M⁻¹ cm⁻¹ | 
16 | CC1(C)C=CN(c2ccccc2)CC1 [Compound 46, 4,4-dimethyl-1-phenyl-1,2,3,4-tetrahydropyridine] | 278 nm | 22550 M⁻¹ cm⁻¹ | 
17 | CCC(=O)C1=CN(c2ccccc2)CCC1(C)C [Compound 47, 1-(4,4-dimethyl-1-phenyl-1,4,5,6-tetrahydropyridin-3-yl)propan-1-one] | 321 nm | 23000 M⁻¹ cm⁻¹ | 
18 | C=CC(=O)C1=CN(c2ccccc2)CCC1(C)C [Compound 48, 1-(4,4-dimethyl-1-phenyl-1,4,5,6-tetrahydropyridin-3-yl)prop-2-en-1-one] | 346 nm | 21000 M⁻¹ cm⁻¹ | 
19 | CC1(C)CCN(c2ccccc2)C=C1C(=O)c1ccc(Br)cc1 [Compound 49, (4-bromophenyl)(1-(phenyl)-4,4-dimethyl-1,4,5,6-tetrahydropyridin-3-yl)methanone] | 338 nm | 23300 M⁻¹ cm⁻¹ | 

Row | SMILES | UV λmax | ε (molar extinction coefficient) | ε value (unit inferred) [M⁻¹ cm⁻¹]
20 | CC1(C)C=CN(c2ccccc2)C=C1 [Compound 50, 4,4-dimethyl-1-phenyl-1,4-dihydropyridine] | 285 nm | 16000 M⁻¹ cm⁻¹ | 
21 | COc1ccc(N2C=CC(C)(C)CC2)cc1 [Compound 51, 1-(4-methoxyphenyl)-4,4-dimethyl-1,2,3,4-tetrahydropyridine] | 278 nm | 22550 M⁻¹ cm⁻¹ | 
22 | CCC(=O)C1=CN(c2ccc(OC)cc2)CCC1(C)C [Compound 52, 1-(1-(4-methoxyphenyl)-4,4-dimethyl-1,4,5,6-tetrahydropyridin-3-yl)propan-1-one] | 328 nm | 23500 M⁻¹ cm⁻¹ | 
23 | C=CC(=O)C1=CN(c2ccc(OC)cc2)CCC1(C)C [Compound 53, 1-(1-(4-methoxyphenyl)-4,4-dimethyl-1,4,5,6-tetrahydropyridin-3-yl)prop-2-en-1-one] | 350 nm | 21500 M⁻¹ cm⁻¹ | 
24 | COc1ccc(N2C=C(C(=O)c3ccc(F)cc3)C(C)(C)CC2)cc1 [Compound 54, (4-fluorophenyl)(1-(4-methoxyphenyl)-4,4-dimethyl-1,4,5,6-tetrahydropyridin-3-yl)methanone] | 341 nm | 19350 M⁻¹ cm⁻¹ | 
25 | CCC(=O)C1=C(c2ccccc2)N(CC(C)C)CCC1(C)C [Compound 58, 1-(1-isobutyl-4,4-dimethyl-2-phenyl-1,4,5,6-tetrahydropyridin-3-yl)propan-1-one] | 338 nm | 8000 M⁻¹ cm⁻¹ | 
26 | CCC(=O)O/C(=C\C1=CC(C)(C)CCN1CC(C)C)CC [Compound 60, 1-(1-isobutyl-4,4-dimethyl-1,4,5,6-tetrahydropyridin-2-yl)but-1-en-2-yl propionate] | 323 nm | 20000 M⁻¹ cm⁻¹ | 
27 | CCC(=O)C1=CN(CC(C)C)C(=O)CC1(C)C [Compound 64, 1-isobutyl-4,4-dimethyl-5-propionyl-3,4-dihydropyridin-2(1H)-one] | 291 nm |  | 
28 | CCC(=O)C1=CN(CC(C)C)C=CC1(C)C [Compound 65, 1-(1-isobutyl-4,4-dimethyl-1,4-dihydropyridin-3-yl)propan-1-one] | 366 nm |  | 
29 | CC(C)CN1C=C(C(=O)CCC(=O)O)C(C)(C)CC1 [Compound 70, 4-(1-isobutyl-4,4-dimethyl-1,4,5,6-tetrahydropyridin-3-yl)-4-oxobutanoic acid] | 308 nm |  | 
30 | CC(C)CN1C=C(C(=O)C(c2ccccc2)c2ccccc2)C(C)(C)CC1 [Compound 71, 1-(1-isobutyl-4,4-dimethyl-1,4,5,6-tetrahydropyridin-3-yl)-2,2-diphenylethanone] | 314 nm | 26000 M⁻¹ cm⁻¹ | 
31 | CC(C)CN1C=C(S(=O)(=O)c2ccccc2)C(C)(C)CC1 [Compound 72, 1-Isobutyl-4,4-dimethyl-5-(phenylsulfonyl)-1,2,3,4-tetrahydropyridine] | 285 nm |  | 
32 | Cc1cc(N2C=CC(C)(C)C=C2)n(C)n1 [Compound 152, 1-(1,3-dimethyl-1H-pyrazol-5-yl)-4,4-dimethyl-1,4-dihydropyridine] | 253 nm | 11371 M⁻¹ cm⁻¹ | 
33 | C=CC(=O)C1=CN(C(C)(C)C)CCC1(C)C [Compound 154, 1-(1-(tert-butyl)-4,4-dimethyl-1,4,5,6-tetrahydropyridin-3-yl)prop-2-en-1-one] | 328 nm | 24907 M⁻¹ cm⁻¹ | 
34 | CC1(C)CCN(C(C)(C)C)C=C1C(=O)/C=C/c1ccccc1 [Compound 155, (E)-1-(1-(tert-butyl)-4,4-dimethyl-1,4,5,6-tetrahydropyridin-3-yl)-3-phenylprop-2-en-1-one] | 360 nm | 23198 M⁻¹ cm⁻¹ | 
35 | CC1(C)CCN(C(C)(C)C)C=C1C(=O)c1ccc(Br)cc1 [Compound 156, (4-bromophenyl)(1-(tert-butyl)-4,4-dimethyl-1,4,5,6-tetrahydropyridin-3-yl)methanone] | 317 nm | 27506 M⁻¹ cm⁻¹ | 
36 | CC1(C)CCN(C(C)(C)C)C=C1C(=O)CCCCCCCCC(=O)C1=CN(C(C)(C)C)CCC1(C)C [Compound 166, 1,10-bis(1-(tert-butyl)-4,4-dimethyl-1,4,5,6-tetrahydropyridin-3-yl)decane-1,10-dione] | 307 nm | 54797 M⁻¹ cm⁻¹ | > 54000
37 | CC1(C)CCN(C(C)(C)C)C=C1C(=O)C1=CN(C(C)(C)C)CCC1(C)C [Compound 167, bis(1-(tert-butyl)-4,4-dimethyl-1,4,5,6-tetrahydropyridin-3-yl)methanone] | 305 nm | 15425 M⁻¹ cm⁻¹ | 
38 | CC1(C)CCN(C(C)(C)C)C=C1C(=O)COc1ccccc1 [Compound 168, 1-(1-(tert-butyl)-4,4-dimethyl-1,4,5,6-tetrahydropyridin-3-yl)-2-phenoxyethanone] | 313 nm | 26154 M⁻¹ cm⁻¹ | 
